One assay addresses JAK1 (Homo sapiens (Human), UniProt P23458). The assay can be described thus: Jak Biochemical HTRF Assay, JAK1. The settings on record: HTRF biochemical assay, GST-tagged catalytic domain; top concentration tested […]; read-out: JAK1 IC50. The source says:
(§1) Jak Biochemical HTRF Assay Protocol
(§2) Subsequent reagent additions employed an Agilent Bravo.

The target of a further assay is JAK2 (Homo sapiens (Human), UniProt O60674). The assay can be described thus: Jak Biochemical HTRF Assay, JAK2. Conditions: HTRF biochemical assay, GST-tagged catalytic domain; top concentration tested […].
Description: as §1, §2

Structures are written as SMILES.

Sequence of JAK2 (O60674 849-1124): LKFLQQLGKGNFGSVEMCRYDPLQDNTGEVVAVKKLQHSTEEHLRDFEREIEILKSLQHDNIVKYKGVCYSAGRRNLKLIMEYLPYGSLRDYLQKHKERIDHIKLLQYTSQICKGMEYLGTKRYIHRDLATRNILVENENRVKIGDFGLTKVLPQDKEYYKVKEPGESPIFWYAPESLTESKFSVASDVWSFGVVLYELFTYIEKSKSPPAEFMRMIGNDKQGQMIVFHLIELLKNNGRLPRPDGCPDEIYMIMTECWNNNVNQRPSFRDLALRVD
Sequence of JAK1 (P23458 875-1153): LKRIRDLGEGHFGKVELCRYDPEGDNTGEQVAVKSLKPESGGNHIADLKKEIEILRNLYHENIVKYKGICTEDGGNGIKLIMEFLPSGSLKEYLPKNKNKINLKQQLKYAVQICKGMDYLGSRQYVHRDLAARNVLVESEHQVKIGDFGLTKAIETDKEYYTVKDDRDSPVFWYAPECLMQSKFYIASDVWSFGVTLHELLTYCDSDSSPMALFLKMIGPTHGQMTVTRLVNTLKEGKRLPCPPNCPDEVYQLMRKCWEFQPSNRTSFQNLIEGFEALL

Broadly, the IC50 is the concentration that inhibits the measured activity by half. For `Cc1nc(-c2ccc(Nc3nn(C4(CC#N)CCN(C(=O)OC(C)(C)C)CC4)cc3C(N)=O)cc2)no1` [Example 9-32, tert-butyl 4-(4-carbamoyl-3-{[4-(5-methyl-1,2,4-oxadiazol-3-yl)phenyl]amino}-1H-pyrazol-1-yl)-4-(cyanomethyl)piperidine-1-carboxylate], the IC50 came to 0.3 nM on JAK1 and 8 nM against JAK2.

Take `CC(C)(C)OC(=O)N1CCC(CC#N)(n2cc(C(N)=O)c(Nc3ccnc(C#N)c3)n2)CC1` [Example 9-33, tert-butyl 4-{4-carbamoyl-3-[(2-cyanopyridin-4-yl)amino]-1H-pyrazol-1-yl}-4-(cyanomethyl)piperidine-1-carboxylate]: the concentration for half-maximal inhibition (IC50) came to 0.2 nM on JAK1 and 6 nM against JAK2.

Take `CC(C)(C)OC(=O)N1CCC(CC#N)(n2cc(C(N)=O)c(Nc3cccnc3)n2)CC1` [Example 9-34, tert-butyl 4-[4-carbamoyl-3-(pyridin-3-ylamino)-1H-pyrazol-1-yl]-4-(cyanomethyl)piperidine-1-carboxylate]: the half-inhibitory concentration (IC50) was determined as 0.5 nM on JAK1 and 4 nM at JAK2.

With `CC(C)(C)OC(=O)N1CCC(CC#N)(n2cc(C(N)=O)c(Nc3cncc(F)c3)n2)CC1` [Example 9-35, tert-butyl 4-{4-carbamoyl-3-[(5-fluoropyridin-3-yl)amino]-1H-pyrazol-1-yl}-4-(cyanomethyl)piperidine-1-carboxylate], the concentration for half-maximal inhibition (IC50) is 1 nM on JAK1 and 16 nM on JAK2.

Turning to `CC(C)(C)OC(=O)N1CCC(CC#N)(n2cc(C(N)=O)c(Nc3cncc(Cl)c3)n2)CC1` [Example 9-36, tert-butyl 4-{4-carbamoyl-3-[(5-chloropyridin-3-yl)amino]-1H-pyrazol-1-yl}-4-(cyanomethyl)piperidine-1-carboxylate], the figures for the IC50 at JAK1 and at JAK2 were 0.9 nM and 21 nM, respectively.

As to `N#CCC1(n2cc(C(N)=O)c(Nc3ccc(C4CCC4)nc3)n2)CCN(C(=O)OCC(F)F)CC1` [Example 9-38, 2,2-difluoroethyl 4-{4-carbamoyl-3-[(6-cyclobutylpyridin-3-yl)amino]-1H-pyrazol-1-yl}-4-(cyanomethyl)piperidine-1-carboxylate], the IC50 on JAK1 turned out to be 0.3 nM; on JAK2 it was 3 nM.

On to `COc1cc(Nc2nn(C3(CC#N)CCN(C(=O)OCC(F)F)CC3)cc2C(N)=O)ccn1` [Example 9-39, 2,2-difluoroethyl 4-{4-carbamoyl-3-[(2-methoxypyridin-4-yl)amino]-1H-pyrazol-1-yl}-4-(cyanomethyl)piperidine-1-carboxylate], for which the values for the IC50 at JAK1 and against JAK2 were 7 nM and 348 nM, respectively.

As to `N#CCC1(n2cc(C(N)=O)c(Nc3ccnc(C4CC4)c3)n2)CCN(C(=O)OCC(F)F)CC1` [Example 9-41, 2,2-difluoroethyl 4-{4-carbamoyl-3-[(2-cyclopropylpyridin-4-yl)amino]-1H-pyrazol-1-yl}-4-(cyanomethyl)piperidine-1-carboxylate], the IC50 on JAK1 is 6 nM; at JAK2 it was 201 nM.

Consider `N#CCC1(n2cc(C(N)=O)c(Nc3ccc(S(=O)(=O)C(F)(F)F)cc3)n2)CCN(C(=O)OCC(F)(F)F)CC1` [Example 10-2, 2,2,2-trifluoroethyl 4-(4-carbamoyl-3-(4-(trifluoromethylsulfonyl)phenylamino)-1H-pyrazol-1-yl)-4-(cyanomethyl)piperidine-1-carboxylate], for which the concentration for half-maximal inhibition (IC50) on JAK1 was determined as 0.5 nM; on JAK2, 4 nM.

On to `N#CCC1(n2cc(C(N)=O)c(Nc3ccc(C(O)C(F)(F)F)nc3)n2)CCN(C(=O)OCC(F)(F)F)CC1` (stereo not shown) [Example 10-3, 2,2,2-trifluoroethyl 4-(4-carbamoyl-3-(6-(2,2,2-trifluoro-1-hydroxyethyl)pyridin-3-ylamino)-1H-pyrazol-1-yl)-4-(cyanomethyl)piperidine-1-carboxylate], for which the values for the concentration for half-maximal inhibition (IC50) on JAK1 and against JAK2 were 0.06 nM and 0.6 nM, respectively.

`N#CCC1(n2cc(C(N)=O)c(Nc3cccc(-c4cc[nH]n4)c3)n2)CCN(C(=O)OCC(F)(F)F)CC1` [Example 10-4, 2,2,2-trifluoroethyl 4-(3-(3-(1H-pyrazol-3-yl)phenylamino)-4-carbamoyl-1H-pyrazol-1-yl)-4-(cyanomethyl)piperidine-1-carboxylate]: the values for the half-maximal inhibitory concentration (IC50) on JAK1 and on JAK2 were 0.4 nM and 29 nM, respectively.

`Cn1cc(-c2cccc(Nc3nn(C4(CC#N)CCN(C(=O)OCC(F)(F)F)CC4)cc3C(N)=O)c2)cn1` [Example 10-5, 2,2,2-trifluoroethyl 4-(4-carbamoyl-3-(3-(1-methyl-1H-pyrazol-4-yl)phenylamino)-1H-pyrazol-1-yl)-4-(cyanomethyl)piperidine-1-carboxylate]: the 50% inhibitory concentration (IC50) was 0.2 nM on JAK1 and 21 nM on JAK2.

Take `Cn1cc(-c2cncc(Nc3nn(C4(CC#N)CCN(C(=O)OCC(F)(F)F)CC4)cc3C(N)=O)c2)cn1` [Example 10-6, 2,2,2-trifluoroethyl 4-(4-carbamoyl-3-(5-(1-methyl-1H-pyrazol-4-yl)pyridinl-3-ylamino)-1H-pyrazol-1-yl)-4-(cyanomethyl)piperidine-1-carboxylate]: the results for the IC50 on JAK1 and against JAK2 were 0.8 nM and 71 nM, respectively.

As for `N#CCC1(n2cc(C(N)=O)c(Nc3cccnc3)n2)CCN(C(=O)OCC(F)(F)F)CC1` [Example 10-7, 2,2,2-trifluoroethyl 4-(4-carbamoyl-3-(pyridin-3-ylamino)-1H-pyrazol-1-yl)-4-(cyanomethyl)piperidine-1-carboxylate], the concentration for half-maximal inhibition (IC50) was determined as 0.2 nM on JAK1 and 4 nM against JAK2.

In the case of `N#CCC1(n2cc(C(N)=O)c(Nc3cncc(F)c3)n2)CCN(C(=O)OCC(F)(F)F)CC1` [Example 10-8, 2,2,2-trifluoroethyl 4-(4-carbamoyl-3-(5-fluoropyridin-3-ylamino)-1H-pyrazol-1-yl)-4-(cyanomethyl)piperidine-1-carboxylate], the IC50 on JAK1 is 0.7 nM; against JAK2, 21 nM.

With `N#CCC1(n2cc(C(N)=O)c(Nc3cncc(Cl)c3)n2)CCN(C(=O)OCC(F)(F)F)CC1` [Example 10-9, 2,2,2-trifluoroethyl 4-{4-carbamoyl-3-[(5-chloropyridin-3-yl)amino]-1H-pyrazol-1-yl}-4-(cyanomethyl)piperidine-1-carboxylate], the half-maximal inhibitory concentration (IC50) on JAK1 was 0.4 nM; against JAK2, 15 nM.

Turning to `Cn1cc(-c2ccc(Nc3nn(C4(CC#N)CCN(C(=O)OCC(F)(F)F)CC4)cc3C(N)=O)cn2)cn1` [Example 11-1, 2,2,2-Trifluoroethyl 4-(4-carbamoyl-3-{[6-(1-methyl-1H-pyrazol-4-yl)pyridin-3-yl]amino}-1H-pyrazol-1-yl)-4-(cyanomethyl)piperidine-1-carboxylate], the IC50 came to 0.03 nM on JAK1 and 0.5 nM against JAK2.

Regarding `N#CCC1(n2cc(C(N)=O)c(Nc3ccc(-c4cn[nH]c4)nc3)n2)CCN(C(=O)OCC(F)(F)F)CC1` [Example 11-2, 2,2,2-trifluoroethyl 4-(4-carbamoyl-3-{[6-(1H-pyrazol-4-yl)pyridin-3-yl]amino}-1H-pyrazol-1-yl)-4-(cyanomethyl)piperidine-1-carboxylate], the half-maximal inhibitory concentration (IC50) at JAK1 worked out at 0.01 nM; at JAK2 it was 0.6 nM.

As to `COC(=O)Cc1ccc(Nc2nn(C3(CC#N)CCN(C(=O)OC(C)(C)C)CC3)cc2C(N)=O)cc1` [Example 12-2, tert-butyl 4-(4-carbamoyl-3-{[4-(2-methoxy-2-oxoethyl)phenyl]amino}-1H-pyrazol-1-yl)-4-(cyanomethyl)piperidine-1-carboxylate], the concentration for half-maximal inhibition (IC50) at JAK1 was determined as 0.2 nM; on JAK2, 3 nM.

With `CC(C)(C)OC(=O)N1CCC(CC#N)(n2cc(C(N)=O)c(Nc3cc(F)cc(F)c3)n2)CC1` [Example 12-3, tert-butyl 4-{4-carbamoyl-3-[(3,5-difluorophenyl)amino]-1H-pyrazol-1-yl}-4-(cyanomethyl)piperidine-1-carboxylate], the results for the half-inhibitory concentration (IC50) at JAK1 and at JAK2 were 2 nM and 42 nM, respectively.

As for `CC(C)(C)OC(=O)N1CCC(CC#N)(n2cc(C(N)=O)c(Nc3ccc(N4CCOCC4)nc3)n2)CC1` [Example 12-4, tert-butyl 4-(4-carbamoyl-3-{[6-(morpholin-4-yl)aphthal-3-yl]amino}-1H-pyrazol-1-yl)-4-(cyanomethyl)piperidine-1-carboxylate], the IC50 at JAK1 was found to be 0.8 nM; against JAK2, 3 nM.

For the molecule `CC(C)(C)OC(=O)N1CCC(CC#N)(n2cc(C(N)=O)c(Nc3ccc(F)nc3)n2)CC1` [Example 12-5, tert-butyl 4-{4-carbamoyl-3-[(6-fluoropyridin-3-yl)amino]-1H-pyrazol-1-yl}-4-(cyanomethyl)piperidine-1-carboxylate], the IC50 amounted to 0.8 nM on JAK1 and 7 nM on JAK2.

`CC(C)(C)OC(=O)N1CCC(CC#N)(n2cc(C(N)=O)c(Nc3ccnnc3)n2)CC1` [Example 12-6, tert-butyl 4-[4-carbamoyl-3-(pyridazin-4-ylamino)-1H-pyrazol-1-yl]-4-(cyanomethyl)piperidine-1-carboxylate]: the half-inhibitory concentration (IC50) at JAK1 worked out at 0.4 nM; against JAK2, 15 nM.

Regarding `CC(C)(C)OC(=O)N1CCC(CC#N)(n2cc(C(N)=O)c(Nc3ccc4c(c3)CNC4=O)n2)CC1` [Example 12-7, tert-butyl 4-{4-carbamoyl-3-[(1-oxo-2,3-dihydro-1H-isoindol-5-yl)amino]-1H-pyrazol-1-yl}-4-(cyanomethyl)piperidine-1-carboxylate], the IC50 on JAK1 came out at 0.1 nM; against JAK2, 2 nM.

With `CC(C)(C)OC(=O)N1CCC(CC#N)(n2cc(C(N)=O)c(Nc3ccncn3)n2)CC1` [Example 13-1, tert-Butyl 4-(4-carbamoyl-3-(pyrimidin-4-ylamino)-1H-pyrazol-1-yl)-4-(cyanomethyl)piperidine-1-carboxylate], the IC50 stood at 3 nM at JAK1 and 139 nM at JAK2.

As for `Cc1cccc(Nc2nn(C3(CC#N)CCN(C(=O)OC(C)(C)C)CC3)cc2C(N)=O)n1` [Example 13-2, tert-butyl 4-(4-carbamoyl-3-(6-methylpyridin-2-ylamino)-1H-pyrazol-1-yl)-4-(cyanomethyl)piperidine-1-carboxylate], the 50% inhibitory concentration (IC50) came out at 13 nM at JAK1 and 1010 nM at JAK2.

Values taken from patent publication US9328099B2, “Cyanomethylpyrazole carboxamides as janus kinase inhibitors” (Merck Sharp & Dohme Corp., priority 2011, dated 2016).
